Laboratory results published in ChEMBL document CHEMBL3885861, “Open TG-GATES”.

Species: Rattus norvegicus
Assay: Open TG-GATES - Regimen: Single
Format: toxicity, organism-based, Sprague-Dawley
Design: regimen Single, gender Male, age 6 weeks
Conditions: in vivo, sc, 0.02 mg/kg, route subcutaneous injection, dose 20 ug/Kg, dose level Low; for APTT / Bas / Eos / Fbg / Hb / Ht / Lym / MCH / MCHC / MCV / Mono / Neu / PT / Plat / RBC / Ret / WBC: tissue Blood; for KIDNEY_L / KIDNEY_R / KIDNEY_TOTAL: tissue Kidney; for LIVER: tissue Liver; for A/G / ALP / ALT / AST / BUN / CRE / Ca / Cl / DBIL / GLC / IP / K / LDH / Na / PL / RALB / TBIL / TC / TG / TP / gamma-GTP: tissue Plasma

Q: For `CC(=O)O.N=C(N)NCCC[C@@H](NC(=O)[C@@H]1CCCN1C(=O)[C@@H]1CSSCCC(=O)N[C@@H](Cc2ccc(O)cc2)C(=O)N[C@@H](Cc2ccccc2)C(=O)N[C@@H](CCC(N)=O)C(=O)N[C@@H](CC(N)=O)C(=O)N1)C(=O)NCC(N)=O` [DESMOPRESSIN ACETATE], which TERMINAL_BW (3 h) is on record?
A: 210.4 g

Q: And the APTT (3 h)?
A: 17.8 s

Q: And the Bas (3 h)?
A: 0%

Q: What about the Eos (3 h) of the same molecule?
A: 1%

Q: And the Fbg (3 h)?
A: 236 mg/dL

Q: What about the Hb (3 h) of the same molecule?
A: 12.9 g/dL

Q: What about the Ht (3 h) of the same molecule?
A: 39.5%

Q: What about the Lym (3 h) of the same molecule?
A: 71.4%

Q: And the MCH (3 h)?
A: 22.1 pg

Q: What about the MCHC (3 h) of the same molecule?
A: 32.7%

Q: What about the MCV (3 h) of the same molecule?
A: 67.5 fL

Q: What about the Mono (3 h) of the same molecule?
A: 8.6%

Q: And the Neu (3 h)?
A: 18.6%

Q: And the PT (3 h)?
A: 12.3 s

Q: And the Plat (3 h)?
A: 120.4 x10_4/uL

Q: What about the RBC (3 h) of the same molecule?
A: 586 x10_4/ul

Q: And the Ret (3 h)?
A: 9.1%

Q: And the WBC (3 h)?
A: 90.2 x10_2/uL

Q: What about the KIDNEY_L (3 h) of the same molecule?
A: 1 g

Q: What about the KIDNEY_R (3 h) of the same molecule?
A: 1 g

Q: What about the KIDNEY_TOTAL (3 h) of the same molecule?
A: 1.9 g

Q: What about the LIVER (3 h) of the same molecule?
A: 10 g

Q: And the A/G (3 h)?
A: 2

Q: What about the ALP (3 h) of the same molecule?
A: 1379 IU/L

Q: And the ALT (3 h)?
A: 39.2 IU/L

Q: And the AST (3 h)?
A: 68.8 IU/L

Q: What about the BUN (3 h) of the same molecule?
A: 21.2 mg/dL

Q: What about the CRE (3 h) of the same molecule?
A: 0.3 mg/dL

Q: What about the Ca (3 h) of the same molecule?
A: 11.1 mg/dL

Q: And the Cl (3 h)?
A: 102.8 meq/L

Q: And the DBIL (3 h)?
A: 0.01 mg/dL

Q: What about the GLC (3 h) of the same molecule?
A: 194.4 mg/dL

Q: And the IP (3 h)?
A: 9.9 mg/dL

Q: What about the K (3 h) of the same molecule?
A: 4.5 meq/L

Q: What about the LDH (3 h) of the same molecule?
A: 123.8 IU/L

Q: What about the Na (3 h) of the same molecule?
A: 135.4 meq/L

Q: And the PL (3 h)?
A: 142 mg/dL

Q: What about the RALB (3 h) of the same molecule?
A: 3.6 g/dL

Q: And the TBIL (3 h)?
A: 0.05 mg/dL

Q: And the TC (3 h)?
A: 81.8 mg/dL

Q: And the TG (3 h)?
A: 64.4 mg/dL

Q: What about the TP (3 h) of the same molecule?
A: 5.4 g/dL

Q: And the gamma-GTP (3 h)?
A: 1 IU/L

Q: And the TERMINAL_BW (6 h)?
A: 202.1 g

Q: And the APTT (6 h)?
A: 17.3 s

Q: What about the Bas (6 h) of the same molecule?
A: 0%

Q: What about the Eos (6 h) of the same molecule?
A: 1%

Q: What about the Fbg (6 h) of the same molecule?
A: 232.8 mg/dL

Q: And the Hb (6 h)?
A: 12.9 g/dL

Q: And the Ht (6 h)?
A: 39.6%

Q: And the Lym (6 h)?
A: 77.8%

Q: And the MCH (6 h)?
A: 21.5 pg

Q: What about the MCHC (6 h) of the same molecule?
A: 32.6%

Q: And the MCV (6 h)?
A: 66.1 fL

Q: What about the Mono (6 h) of the same molecule?
A: 8%

Q: What about the Neu (6 h) of the same molecule?
A: 13.2%

Q: What about the PT (6 h) of the same molecule?
A: 12.7 s

Q: What about the Plat (6 h) of the same molecule?
A: 116.8 x10_4/uL

Q: What about the RBC (6 h) of the same molecule?
A: 598.6 x10_4/ul

Q: What about the Ret (6 h) of the same molecule?
A: 9.1%

Q: What about the WBC (6 h) of the same molecule?
A: 105.6 x10_2/uL

Q: What about the KIDNEY_L (6 h) of the same molecule?
A: 1 g

Q: And the KIDNEY_R (6 h)?
A: 1 g

Q: What about the KIDNEY_TOTAL (6 h) of the same molecule?
A: 2 g

Q: What about the LIVER (6 h) of the same molecule?
A: 9.1 g

Q: What about the A/G (6 h) of the same molecule?
A: 1.9

Q: What about the ALP (6 h) of the same molecule?
A: 1160 IU/L

Q: And the ALT (6 h)?
A: 31.2 IU/L

Q: And the AST (6 h)?
A: 60 IU/L

Q: What about the BUN (6 h) of the same molecule?
A: 25.4 mg/dL

Q: And the CRE (6 h)?
A: 0.3 mg/dL

Q: And the Ca (6 h)?
A: 10.8 mg/dL

Q: What about the Cl (6 h) of the same molecule?
A: 103.6 meq/L

Q: What about the DBIL (6 h) of the same molecule?
A: 0.014 mg/dL

Q: What about the GLC (6 h) of the same molecule?
A: 199 mg/dL

Q: And the IP (6 h)?
A: 9.6 mg/dL

Q: And the K (6 h)?
A: 4.8 meq/L

Q: What about the LDH (6 h) of the same molecule?
A: 109.4 IU/L

Q: What about the Na (6 h) of the same molecule?
A: 135 meq/L

Q: What about the PL (6 h) of the same molecule?
A: 142.8 mg/dL

Q: What about the RALB (6 h) of the same molecule?
A: 3.5 g/dL

Q: And the TBIL (6 h)?
A: 0.074 mg/dL

Q: What about the TC (6 h) of the same molecule?
A: 85 mg/dL

Q: What about the TG (6 h) of the same molecule?
A: 62.4 mg/dL

Q: What about the TP (6 h) of the same molecule?
A: 5.3 g/dL

Q: What about the gamma-GTP (6 h) of the same molecule?
A: 1 IU/L

Q: What about the TERMINAL_BW (9 h) of the same molecule?
A: 202.1 g

Q: And the APTT (9 h)?
A: 16.9 s

Q: What about the Bas (9 h) of the same molecule?
A: 0%

Q: What about the Eos (9 h) of the same molecule?
A: 1.4%

Q: And the Fbg (9 h)?
A: 229 mg/dL

Q: And the Hb (9 h)?
A: 13 g/dL

Q: And the Ht (9 h)?
A: 40.1%

Q: And the Lym (9 h)?
A: 72%

Q: What about the MCH (9 h) of the same molecule?
A: 21.8 pg

Q: What about the MCHC (9 h) of the same molecule?
A: 32.6%

Q: What about the MCV (9 h) of the same molecule?
A: 67.1 fL

Q: And the Mono (9 h)?
A: 8.4%

Q: And the Neu (9 h)?
A: 18.4%

Q: What about the PT (9 h) of the same molecule?
A: 12.8 s

Q: And the Plat (9 h)?
A: 118 x10_4/uL

Q: And the RBC (9 h)?
A: 598.2 x10_4/ul

Q: And the Ret (9 h)?
A: 9.3%

Q: What about the WBC (9 h) of the same molecule?
A: 94.6 x10_2/uL

Q: What about the KIDNEY_L (9 h) of the same molecule?
A: 1 g

Q: What about the KIDNEY_R (9 h) of the same molecule?
A: 0.9 g

Q: And the KIDNEY_TOTAL (9 h)?
A: 1.9 g

Q: What about the LIVER (9 h) of the same molecule?
A: 8.7 g

Q: And the A/G (9 h)?
A: 2.2

Q: And the ALP (9 h)?
A: 1148.8 IU/L

Q: What about the ALT (9 h) of the same molecule?
A: 32.2 IU/L

Q: What about the AST (9 h) of the same molecule?
A: 62.6 IU/L

Q: And the BUN (9 h)?
A: 24.4 mg/dL

Q: What about the CRE (9 h) of the same molecule?
A: 0.3 mg/dL

Q: And the Ca (9 h)?
A: 11 mg/dL

Q: What about the Cl (9 h) of the same molecule?
A: 103.8 meq/L

Q: And the DBIL (9 h)?
A: 0.016 mg/dL

Q: What about the GLC (9 h) of the same molecule?
A: 198.4 mg/dL

Q: What about the IP (9 h) of the same molecule?
A: 10.6 mg/dL

Q: And the K (9 h)?
A: 5.1 meq/L

Q: What about the LDH (9 h) of the same molecule?
A: 143.8 IU/L

Q: What about the Na (9 h) of the same molecule?
A: 136.4 meq/L

Q: And the PL (9 h)?
A: 136.6 mg/dL

Q: What about the RALB (9 h) of the same molecule?
A: 3.6 g/dL

Q: What about the TBIL (9 h) of the same molecule?
A: 0.056 mg/dL

Q: And the TC (9 h)?
A: 78.2 mg/dL

Q: And the TG (9 h)?
A: 47.6 mg/dL

Q: And the TP (9 h)?
A: 5.3 g/dL

Q: What about the gamma-GTP (9 h) of the same molecule?
A: 0.4 IU/L

Q: And the TERMINAL_BW (24 h)?
A: 220.6 g

Q: What about the APTT (24 h) of the same molecule?
A: 16.9 s

Q: What about the Bas (24 h) of the same molecule?
A: 0%

Q: What about the Eos (24 h) of the same molecule?
A: 1%

Q: And the Fbg (24 h)?
A: 245.2 mg/dL

Q: And the Hb (24 h)?
A: 12.8 g/dL

Q: What about the Ht (24 h) of the same molecule?
A: 39.6%

Q: What about the Lym (24 h) of the same molecule?
A: 74%

Q: What about the MCH (24 h) of the same molecule?
A: 21.3 pg

Q: What about the MCHC (24 h) of the same molecule?
A: 32.4%

Q: And the MCV (24 h)?
A: 65.9 fL

Q: And the Mono (24 h)?
A: 7.8%

Q: What about the Neu (24 h) of the same molecule?
A: 17.2%

Q: And the PT (24 h)?
A: 12.1 s

Q: And the Plat (24 h)?
A: 134.8 x10_4/uL

Q: And the RBC (24 h)?
A: 601 x10_4/ul

Q: And the Ret (24 h)?
A: 10.2%

Q: And the WBC (24 h)?
A: 109.6 x10_2/uL

Q: And the KIDNEY_L (24 h)?
A: 1 g

Q: What about the KIDNEY_R (24 h) of the same molecule?
A: 1 g

Q: And the KIDNEY_TOTAL (24 h)?
A: 1.9 g

Q: And the LIVER (24 h)?
A: 10.3 g

Q: And the A/G (24 h)?
A: 2

Q: And the ALP (24 h)?
A: 1595.4 IU/L

Q: What about the ALT (24 h) of the same molecule?
A: 35 IU/L

Q: What about the AST (24 h) of the same molecule?
A: 63.8 IU/L

Q: And the BUN (24 h)?
A: 15 mg/dL

Q: What about the CRE (24 h) of the same molecule?
A: 0.4 mg/dL

Q: And the Ca (24 h)?
A: 11.3 mg/dL

Q: And the Cl (24 h)?
A: 104.8 meq/L

Q: What about the DBIL (24 h) of the same molecule?
A: 0 mg/dL

Q: And the GLC (24 h)?
A: 193.2 mg/dL

Q: And the IP (24 h)?
A: 7.8 mg/dL

Q: What about the K (24 h) of the same molecule?
A: 5.2 meq/L

Q: And the LDH (24 h)?
A: 137 IU/L

Q: And the Na (24 h)?
A: 137.8 meq/L

Q: And the PL (24 h)?
A: 152.8 mg/dL

Q: And the RALB (24 h)?
A: 3.7 g/dL

Q: And the TBIL (24 h)?
A: 0.022 mg/dL

Q: And the TC (24 h)?
A: 83.8 mg/dL

Q: And the TG (24 h)?
A: 98.6 mg/dL

Q: What about the TP (24 h) of the same molecule?
A: 5.5 g/dL

Q: And the gamma-GTP (24 h)?
A: 1.2 IU/L
